Data reported in US9850283B2, “Macrocyclic inhibitors of the PD-1/PD-L1 and CD80(B7-1)/PD-L1 protein/protein interactions” (BRISTOL-MYERS SQUIBB COMPANY, priority 2013, dated 2017).
Where two headings read alike, the source gives them in different places. Starred links: 1 amine or outer side, 2 acyl side, 3 side chain; linkers in the order of their positions; H or OH if unused. Positions of bridges follow the written chain, without caps; N, C: chain ends. Non-standard residues stand in square brackets, D forms with d. Residues, ends and D or L forms follow the SMILES beside them. ξ: configuration not given here. *: point of attachment. X3 = O=C([C@@H]1C[C@@H](Cc2ccc(F)cc2)CN1[*:1])[*:2]; Phe(3,4,5-F3) = N[C@@H](Cc1cc(F)c(F)c(F)c1)C(=O)O; Phe(3,4-Cl2) = N[C@@H](Cc1ccc(Cl)c(Cl)c1)C(=O)O; Tyr(3-Br) = N[C@@H](Cc1ccc(O)c(Br)c1)C(=O)O; Phe(4-NH2) = Nc1ccc(C[C@H](N)C(=O)O)cc1; Bta = N[C@@H](Cc1csc2ccccc12)C(=O)O; Hyp = O=C(O)[C@@H]1C[C@@H](O)CN1; NMeF = CN[C@@H](Cc1ccccc1)C(=O)O; NMeNle = CCCC[C@H](NC)C(=O)O; NMeM = CN[C@@H](CCSC)C(=O)O; hSer = N[C@@H](CCO)C(=O)O; NMeA = CN[C@@H](C)C(=O)O; Orn = NCCC[C@H](N)C(=O)O; Dab = NCC[C@H](N)C(=O)O; Dap = NC[C@H](N)C(=O)O; Bn = c1ccc(C*)cc1; ξC = NC(CS)C(=O)O; Sar = CNCC(=O)O

Tests used:
Human PD-L1/PD-1 = target: T1, Human PD-L1/PD-1 (Homo sapiens, UniProt Q9NZQ7); assay: HTRF PD-1-Ig/PD-L1-His binding assay (human PD-L1); settings: cluster symbol; read-out: HTRF IC50 cluster
T1 construct: made in house; host or cells: HEK293T
T1 sequence (Q9NZQ7 with tags, fused parts or gaps): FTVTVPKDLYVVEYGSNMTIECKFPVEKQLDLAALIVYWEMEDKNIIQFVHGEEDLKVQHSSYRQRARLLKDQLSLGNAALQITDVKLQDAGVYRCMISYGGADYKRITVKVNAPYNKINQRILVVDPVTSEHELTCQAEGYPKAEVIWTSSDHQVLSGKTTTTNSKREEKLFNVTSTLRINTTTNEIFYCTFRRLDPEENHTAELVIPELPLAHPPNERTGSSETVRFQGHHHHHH
Summary of the method: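 Soluble PD-1-Ig binding to PD-L1-His measured by HTRF in dPBS with 0.1% BSA and 0.05% Tween-20. Detection used europium cryptate anti-Ig antibody (1 nM final) and APC anti-His antibody (20 nM final) added on top of the binding reaction.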

[1] = target: T2, LK35.2-hPD-L1 cells / PE-labeled PD-1-Ig (Homo sapiens, UniProt Q9NZQ7); assay: LK35.2-hPD-L1 cell binding high-content screening assay; type: cell-based; settings: cluster symbol, read-out: CBA IC50 cluster
T2 construct: expressed in transfected cells; host or cells: LK35.2 mouse B cell line
T2 sequence (Q9NZQ7 19-290): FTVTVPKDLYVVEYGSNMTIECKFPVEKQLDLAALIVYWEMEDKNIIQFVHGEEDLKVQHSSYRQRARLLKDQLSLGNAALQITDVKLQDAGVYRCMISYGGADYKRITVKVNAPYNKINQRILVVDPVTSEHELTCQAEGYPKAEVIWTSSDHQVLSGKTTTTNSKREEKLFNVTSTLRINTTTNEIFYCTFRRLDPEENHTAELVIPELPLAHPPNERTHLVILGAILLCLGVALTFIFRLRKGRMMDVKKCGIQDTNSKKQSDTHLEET
Summary of the method: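 Mouse LK35.2 B cells stably overexpressing human PD-L1 were cultured overnight in RPMI with 10% FCS, then given compound and PE-labeled human PD-1-Ig (1 nM final) for 1 h at 37 °C. After three dPBS washes, bound fluorescence was quantified by high-content imaging.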

[2] = cell binding assay, cell line not given
[3] = cell line of CBA not given (LK35.2-hPD-L1 or 293T-hPD-L1)

Row | SMILES | IC50 (Human PD-L1/PD-1) [nM] | IC50 [1, 2] [nM] | IC50 [1, 3] [nM]
1 | CCCC[C@H]1C(=O)N(C)CC(=O)N[C@@H](CC(=O)O)C(=O)N[C@@H](C(C)C)C(=O)N(C)[C@@H](Cc2ccccc2)C(=O)N[C@@H](Cc2ccc(O)cc2)C(=O)N(C)CC(=O)N[C@@H](Cc2c[nH]c3ccccc23)C(=O)N[C@@H](Cc2ccc(Cl)c(Cl)c2)C(=O)N[C@@H](CC(C)C)C(=O)N[C@H](C(=O)NCC(N)=O)CSCC(=O)N[C@@H](Cc2ccccc2)C(=O)N(C)[C@@H](Cc2ccccc2)C(=O)N1C [Example 3100] ({CH2CO}-F[NMeF][NMeNle][Sar]DV[NMeF]Y[Sar]W[Phe(3,4-Cl2)]LCG-NH2; thioether N-13) | > 30.5 |  | > 74.3
2 | CCCC[C@H]1C(=O)N(C)[C@@H](CCCC)C(=O)N[C@@H](CCCNC(=N)N)C(=O)NC(C(=O)NCC(N)=O)CSCC(=O)N[C@@H](Cc2ccc(O)cc2)C(=O)N(C)[C@@H](C)C(=O)N[C@@H](CC(N)=O)C(=O)N2CCC[C@H]2C(=O)N[C@@H](Cc2cnc[nH]2)C(=O)N[C@@H](CCO)C(=O)N2C[C@H](O)C[C@H]2C(=O)N[C@@H](Cc2c[nH]c3ccccc23)C(=O)N[C@@H](CO)C(=O)N[C@@H](Cc2c[nH]c3ccccc23)C(=O)N1C (some centres unmarked) [Example 9051] ({CH2CO}-Y[NMeA]NPH[hSer][Hyp]WSW[NMeNle][NMeNle]R[ξC]G-NH2; thioether N-14) | 6.76 to 30.3 | 0.158 to 4.71 | 
3 | CCCC[C@H]1C(=O)N(C)CC(=O)N[C@@H](CC(=O)O)C(=O)N[C@@H](C(C)C)C(=O)N(C)[C@@H](Cc2ccccc2)C(=O)N[C@@H](Cc2ccc(O)cc2)C(=O)N(C)CC(=O)N[C@@H](Cc2c[nH]c3ccccc23)C(=O)N[C@@H](Cc2ccc(N)cc2)C(=O)N[C@@H](CC(C)C)C(=O)N[C@H](C(=O)NCC(N)=O)CSCC(=O)N[C@@H](Cc2ccccc2)C(=O)N(C)[C@@H](Cc2ccccc2)C(=O)N1C [Example 3140] ({CH2CO}-F[NMeF][NMeNle][Sar]DV[NMeF]Y[Sar]W[Phe(4-NH2)]LCG-NH2; thioether N-13) | 6.76 to 30.3 |  | 4.78 to 72.9
4 | CCCC[C@H]1C(=O)N(C)CC(=O)N[C@@H](CCN)C(=O)N[C@@H](C(C)C)C(=O)N(C)[C@@H](Cc2ccccc2)C(=O)N[C@@H](Cc2ccc(O)cc2)C(=O)N(C)CC(=O)N[C@@H](Cc2c[nH]c3ccccc23)C(=O)N[C@@H](Cc2ccc(O)cc2)C(=O)N[C@@H](CC(C)C)C(=O)N[C@H](C(=O)NCC(N)=O)CSCC(=O)N[C@@H](Cc2ccccc2)C(=O)N(C)[C@@H](Cc2ccccc2)C(=O)N1C [Example 3153] (HELM PEPTIDE1{[O=C(C[*:3])[*:2]].F.[meF].[CCCC[C@@H](C(=O)[*:2])N(C)[*:1]].[Sar].[Dab].V.[meF].Y.[Sar].W.Y.L.C.G.[am]}$PEPTIDE1,PEPTIDE1,1:R3-14:R3$$$V2.0) | 6.76 to 30.3 |  | 4.78 to 72.9
5 | CCCC[C@H]1C(=O)N(C)CC(=O)N[C@@H](CC(=O)O)C(=O)N[C@@H](C(C)C)C(=O)N(C)[C@@H](Cc2cnc[nH]2)C(=O)N[C@@H](Cc2ccc(O)cc2)C(=O)N(C)CC(=O)N[C@@H](Cc2c[nH]c3ccccc23)C(=O)N[C@@H](Cc2ccc(O)cc2)C(=O)N[C@@H](CC(C)C)C(=O)N[C@H](C(=O)NCC(N)=O)CSCC(=O)N[C@@H](Cc2ccccc2)C(=O)N(C)[C@@H](Cc2cnc[nH]2)C(=O)N1C [Example 3058-A] (HELM PEPTIDE1{[O=C(C[*:3])[*:2]].F.[meH].[CCCC[C@@H](C(=O)[*:2])N(C)[*:1]].[Sar].D.V.[meH].Y.[Sar].W.Y.L.C.G.[am]}$PEPTIDE1,PEPTIDE1,1:R3-14:R3$$$V2.0) | > 30.5 |  | > 74.3
6 | CCCC[C@H]1C(=O)N(C)[C@@H](CCCC)C(=O)N[C@@H](CCCNC(=N)N)C(=O)N[C@H](C(=O)NCC(N)=O)CSCC(=O)N[C@@H](Cc2ccc(O)cc2)C(=O)N(C)[C@@H](C)C(=O)N[C@@H](CC(N)=O)C(=O)N2CCC[C@H]2C(=O)N[C@@H](CN)C(=O)N[C@@H](CCC(=O)O)C(=O)N2CCC[C@H]2C(=O)N[C@@H](Cc2c[nH]c3ccccc23)C(=O)N[C@@H](CO)C(=O)N[C@@H](Cc2csc3ccccc23)C(=O)N1C [Example 1127] ({CH2CO}-Y[NMeA]NP[Dap]EPWS[Bta][NMeNle][NMeNle]RCG-NH2; thioether N-14) | 0.385 to 6.74 |  | 0.158 to 4.71
7 | CCCC[C@H]1C(=O)N(C)CC(=O)N[C@@H](CC(=O)O)C(=O)N[C@@H](C(C)C)C(=O)N(C)[C@@H](Cc2ccccc2)C(=O)N[C@@H](Cc2ccc(O)cc2)C(=O)N(C)CC(=O)N[C@@H](Cc2c[nH]c3ccccc23)C(=O)N[C@@H](Cc2ccc(O)cc2)C(=O)N[C@@H](CC(C)C)C(=O)N[C@H](C(=O)NCC(N)=O)CSCC(=O)N[C@@H](Cc2cc(F)c(F)c(F)c2)C(=O)N(C)[C@@H](Cc2ccccc2)C(=O)N1C [Example 3144] ({CH2CO}-[Phe(3,4,5-F3)][NMeF][NMeNle][Sar]DV[NMeF]Y[Sar]WYLCG-NH2; thioether N-13) | 6.76 to 30.3 |  | 0.158 to 4.71
8 | CCCC[C@H]1C(=O)N[C@@H](CCCNC(=N)N)C(=O)NC(C(=O)NCC(N)=O)CSCC(=O)N[C@@H](Cc2ccc(O)cc2)C(=O)N(C)[C@@H](C)C(=O)N[C@@H](CC(N)=O)C(=O)N2CCC[C@H]2C(=O)N[C@@H](CN)C(=O)N[C@@H](CC(C)C)C(=O)N2CCC[C@H]2C(=O)N[C@@H](Cc2c[nH]c3ccccc23)C(=O)N[C@@H](CO)C(=O)N[C@@H](Cc2c[nH]c3ccccc23)C(=O)N(C)[C@@H](CCSC)C(=O)N1C (some centres unmarked) [Example 9089] ({CH2CO}-Y[NMeA]NP[Dap]LPWSW[NMeM][NMeNle]R[ξC]G-NH2; thioether N-14) | 0.385 to 6.74 | 0.158 to 4.71 | 

Further lines, results first:

Row | IC50 (Human PD-L1/PD-1) [nM] | IC50 [1, 2] [nM] | IC50 [1, 3] [nM] | SMILES
9 | 0.385 to 6.74 | 4.78 to 72.9 |  | CCCC[C@H]1C(=O)N(C)[C@@H](CCSC)C(=O)N[C@@H](CCCNC(=N)N)C(=O)NC(C(=O)NCC(N)=O)CSCC(=O)N[C@@H](Cc2ccc(O)cc2)C(=O)N(C)[C@@H](C)C(=O)N[C@@H](CC(N)=O)C(=O)N2CCC[C@H]2C(=O)N[C@@H](Cc2cnc[nH]2)C(=O)N[C@@H](CO)C(=O)N2CCC[C@H]2C(=O)N[C@@H](Cc2c[nH]c3ccccc23)C(=O)N[C@@H](CO)C(=O)N[C@@H](Cc2csc3ccccc23)C(=O)N1C (some centres unmarked) [Example 9106] ({CH2CO}-Y[NMeA]NPHSPWS[Bta][NMeNle][NMeM]R[ξC]G-NH2; thioether N-14)
10 | 0.385 to 6.74 | > 74.3 |  | CCCC[C@H]1C(=O)N(C)[C@@H](CCCC)C(=O)N[C@@H](CCC(=O)O)C(=O)N[C@H](C(=O)NCC(N)=O)CSCC(=O)N[C@@H](Cc2ccc(O)cc2)C(=O)N(C)[C@@H](C)C(=O)N[C@@H](CC(=O)O)C(=O)N2CCC[C@H]2C(=O)N[C@@H](Cc2c[nH]cn2)C(=O)N[C@@H](CCCCN)C(=O)N2C[C@H](Cc3ccc(F)cc3)C[C@H]2C(=O)N[C@@H](Cc2c[nH]c3ccccc23)C(=O)N[C@@H](CCCCN)C(=O)N[C@@H](Cc2c[nH]c3ccccc23)C(=O)N1C [Example 13014] ({CH2CO}-Y[NMeA]DPHK[X3]WKW[NMeNle][NMeNle]ECG-NH2; thioether N-14)
11 | 0.385 to 6.74 | 4.78 to 72.9 |  | CCCC[C@H]1C(=O)N(C)[C@@H](CCCC)C(=O)N[C@@H](CCN)C(=O)N[C@H](C(=O)NCC(N)=O)CSCC(=O)N[C@@H](Cc2ccc(O)c(Br)c2)C(=O)N(C)[C@@H](C)C(=O)N[C@@H](CC(N)=O)C(=O)N2CCC[C@H]2C(=O)N[C@@H](Cc2cnc[nH]2)C(=O)N[C@@H](CC(C)C)C(=O)N(C)CC(=O)N[C@@H](Cc2c[nH]c3ccccc23)C(=O)N[C@@H](CCN)C(=O)N[C@@H](Cc2c[nH]c3ccccc23)C(=O)N1C [Example 6043] ({CH2CO}-[Tyr(3-Br)][NMeA]NPHL[Sar]W[Dab]W[NMeNle][NMeNle][Dab]CG-NH2; thioether N-14)
12 | 0.385 to 6.74 | 0.158 to 4.71 |  | CCCC[C@H]1C(=O)N(C)[C@@H](CCCC)C(=O)N[C@@H](CCCN)C(=O)N[C@H](C(=O)NCC(N)=O)CSCC(=O)N[C@@H](Cc2ccc(O)cc2)C(=O)N(C)[C@@H](C)C(=O)N[C@@H](CC(N)=O)C(=O)N2CCC[C@H]2C(=O)N[C@@H](CN)C(=O)N[C@@H](CC(C)C)C(=O)N2C[C@H](OCc3ccccc3)C[C@H]2C(=O)N[C@@H](Cc2c[nH]c3ccccc23)C(=O)N[C@@H](CO)C(=O)N[C@@H](Cc2c[nH]c3ccccc23)C(=O)N1C [Example 14003] ({CH2CO}-Y[NMeA]NP[Dap]L[Hyp](Bn)WSW[NMeNle][NMeNle][Orn]CG-NH2; thioether N-14)
13 | 0.385 to 6.74 |  | 0.158 to 4.71 | CCCC[C@H]1C(=O)N(C)[C@@H](CCCC)C(=O)N[C@@H](CCCN)C(=O)N[C@H](C(=O)NCC(N)=O)CSCC(=O)N[C@@H](Cc2ccc(O)cc2)C(=O)N(C)[C@@H](C)C(=O)N[C@@H](CC(=O)O)C(=O)N2CCC[C@H]2C(=O)N[C@@H](CN)C(=O)N[C@@H](CCC(=O)O)C(=O)N2C[C@H](O)C[C@H]2C(=O)N[C@@H](Cc2c[nH]c3ccccc23)C(=O)N[C@@H](CCN)C(=O)N[C@@H](Cc2csc3ccccc23)C(=O)N1C [Example 1183] ({CH2CO}-Y[NMeA]DP[Dap]E[Hyp]W[Dab][Bta][NMeNle][NMeNle][Orn]CG-NH2; thioether N-14)
